From patent publication US8106055B2, “Substituted amide compounds” (Gruenenthal GmbH, priority 2007, dated 2012)

Columns and labels:
human μ opiate receptor = molecular target: T1, human μ opiate receptor (Homo sapiens, UniProt P35372); assay: Affinity for the human μ opiate receptor ([3H]-naloxone displacement, CHO-K1 receptor membrane preparation, SPA); type: binding; conditions: 1.5 h, Table 2; test concentration 1 μM; read-out: μ receptor
T1 construct: purchased PerkinElmer Life Sciences, Zaventem, Belgium RB-HOM; host or cells: CHO-K1 cells (membrane preparation)
How it was run: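 Displacement of 1 nmol/l [3H]-naloxone measured by SPA counting after 90 min at room temperature, using human μ receptor CHO-K1 membrane preparation in Tris-HCl buffer with 0.06% BSA. Test substances at 1 μmol/l give % inhibition; dilution series yield IC50, then Ki (Cheng-Prusoff); non-specific binding with 100 μmol/l naloxone.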

[1] = molecular target: T2, serotonin (5-HT) reuptake (Rattus norvegicus, UniProt P31652); assay: Inhibition of serotonin (5HT) reuptake in synaptosomes from rat brain; type: biochemical; conditions: Table 2; test concentration 10 μM; read-out: 5-HT reuptake
T2 construct: synaptosomes are freshly isolated from areas of the rat brain; from tissue; host or cells: rat brain synaptosomes (P2 fraction)
Description: Binding data of the compounds on the μ opioid receptor and data on the inhibition of reuptake of serotonin (5-HT) are given in Table 1. The data for the μ receptor were measured at a test concentration of 1 μM, and those for the serotonin reuptake at 10 μM. The values are stated in % inhibition.
Inhibition of Serotonin (5HT) Reuptake
In order to be able to carry out these in vitro studies, synaptosomes are freshly isolated from areas of the rat brain. In each case a so-called “P2” fraction prepared in accordance with the instructions of Gray and Whittaker (E. G. Gray and V. P. Whittaker (1962) J. Anat. 76, 79-88) is prepared. For the NA uptake, these vesicular particles are isolated from the hypothalamus of male rat brains.
A detailed description of the method can be found in the literature (M. Ch. Frink, H.-H. Hennies, W. Englberger, M. Haurand and B. Wilffert (1996) Arzneim.-Forsch./Drug Res. 46 (III), 11, 1029-1036).

[2] = molecular target: T3, human bradykinin 1 receptor (B1R) (Homo sapiens, UniProt P46663); assay: Functional investigation on the human bradykinin 1 receptor (B1R), Ca2+ FLIPR assay in CHO K1 hB1R cells; type: cell-based; conditions: CHO-K1, B1R antagonism human; test substance 10 μM; Ca2+ FLIPR, CHO K1 hB1R cells; read-out: B1R Ant. h [10 μM] % Inhibition
T3 construct: expressed in transfected cells; host or cells: CHO K1 cells
T3 sequence (P46663 1-353): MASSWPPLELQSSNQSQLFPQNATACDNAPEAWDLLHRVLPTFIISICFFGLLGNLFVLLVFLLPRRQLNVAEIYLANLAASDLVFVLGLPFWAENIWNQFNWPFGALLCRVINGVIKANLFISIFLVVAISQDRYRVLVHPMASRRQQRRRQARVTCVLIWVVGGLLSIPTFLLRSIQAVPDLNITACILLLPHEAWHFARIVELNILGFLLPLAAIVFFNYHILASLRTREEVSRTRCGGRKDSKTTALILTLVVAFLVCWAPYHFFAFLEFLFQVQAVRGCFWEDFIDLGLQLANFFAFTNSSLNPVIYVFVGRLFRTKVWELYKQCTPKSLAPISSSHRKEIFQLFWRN
How it was run: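 Fluo-4 Ca2+ readout, peak fluorescence. Stable CHO K1 transfectants; compound pre-incubated 10-20 min, then EC80 agonist—Lys-Des-Arg9-BK for hB1R, Des-Arg9-BK for rB1R. % inhibition vs maximal inhibition; IC50 from multiple concentrations, duplicate/triplicate, ≥2 independent runs.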

T2 sequence (P31652 whole entry): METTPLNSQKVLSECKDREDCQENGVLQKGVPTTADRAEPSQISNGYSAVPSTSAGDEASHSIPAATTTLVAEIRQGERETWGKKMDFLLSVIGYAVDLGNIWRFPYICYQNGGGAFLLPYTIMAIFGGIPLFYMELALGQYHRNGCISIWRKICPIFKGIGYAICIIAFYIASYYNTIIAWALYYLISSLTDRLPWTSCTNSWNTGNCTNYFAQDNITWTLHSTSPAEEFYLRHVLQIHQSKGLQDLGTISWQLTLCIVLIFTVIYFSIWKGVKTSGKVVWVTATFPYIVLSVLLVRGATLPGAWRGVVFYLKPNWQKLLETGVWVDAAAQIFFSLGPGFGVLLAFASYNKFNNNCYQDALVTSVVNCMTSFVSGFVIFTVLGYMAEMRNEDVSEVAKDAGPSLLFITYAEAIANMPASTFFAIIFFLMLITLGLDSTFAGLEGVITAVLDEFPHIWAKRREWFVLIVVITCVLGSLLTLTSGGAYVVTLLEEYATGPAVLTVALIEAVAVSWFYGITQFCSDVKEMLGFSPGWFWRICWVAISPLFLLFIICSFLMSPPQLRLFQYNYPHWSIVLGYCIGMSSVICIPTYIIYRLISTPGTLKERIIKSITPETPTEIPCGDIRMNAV
T1 sequence (P35372 whole entry): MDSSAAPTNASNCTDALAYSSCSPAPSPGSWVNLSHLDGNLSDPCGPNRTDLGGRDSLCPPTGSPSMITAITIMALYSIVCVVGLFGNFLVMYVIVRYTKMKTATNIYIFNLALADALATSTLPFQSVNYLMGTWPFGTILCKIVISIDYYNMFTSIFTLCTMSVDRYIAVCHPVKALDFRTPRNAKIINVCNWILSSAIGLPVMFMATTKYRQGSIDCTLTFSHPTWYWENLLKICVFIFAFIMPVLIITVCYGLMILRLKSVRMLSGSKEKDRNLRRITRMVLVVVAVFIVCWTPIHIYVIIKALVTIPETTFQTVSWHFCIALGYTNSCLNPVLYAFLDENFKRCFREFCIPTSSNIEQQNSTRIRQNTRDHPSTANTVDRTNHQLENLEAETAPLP

Compound	inhibition at 1 µM (human μ opiate receptor)	inhibition at 10 µM [1]	inhibition at 10 µM [2]
CN(Cc1ccccc1)C(c1ccccc1)C1CCC(NC(=O)COCCN(C)S(=O)(=O)c2c(Cl)cc(Cl)cc2Cl)CC1 (stereo not drawn) [Example 599, N-{4-[(benzylmethylamino)-phenylmethyl]-cyclohexyl}-2-{2-[methyl-(2,4,6-trichlorobenzenesulfonyl)-amino]-ethoxy}-acetamide]	91%	33%	-6%
CN(C)C(c1ccccc1)C1CCC(NC(=O)COCCN(C2CC2)S(=O)(=O)c2c(Cl)cc(Cl)cc2Cl)CC1 (stereo not drawn) [Example 600, 2-{2-[cyclopropyl-(2,4,6-trichlorobenzenesulfonyl)-amino]-ethoxy}-N-[4-(dimethylaminophenylmethyl)-cyclohexyl]-acetamide]	95%	60%	101%
CN(CCOCC(=O)NC1CCC(C(c2ccccc2)N2CCCCC2)CC1)S(=O)(=O)c1c(Cl)cc(Cl)cc1Cl (stereo not drawn) [Example 601, 2-{2-[methyl-(2,4,6-trichlorobenzenesulfonyl)-amino]-ethoxy}-N-[4-(phenylpiperidin-1-yl-methyl)-cyclohexyl]-acetamide]	45%	75%	78%
O=C(COCCN(C1CC1)S(=O)(=O)c1c(Cl)cc(Cl)cc1Cl)NC1CCC(C(c2ccccc2)N2CCCCC2)CC1 (stereo not drawn) [Example 602, 2-{2-[cyclopropyl-(2,4,6-trichlorobenzenesulfonyl)-amino]-ethoxy}-N-[4-(phenylpiperidin-1-ylmethyl)-cyclohexyl]-acetamide]	55%	51%	81%
